Laboratory results: patent US10206908B2, “3-(1H-pyrrolo[3,2-C]pyridin-2-YL)-1H-pyrazolo[3,4-C]pyridines and therapeutic uses thereof” (Samumed, LLC, priority 2015, dated 2019)

Columns and labels:
Assay type in all cases: cell-based
[1] = system: primary human mesenchymal stem cells (hMSCs); experiment: Induction of chondrogenesis in hMSCs (chondrogenic nodules, Rhodamine B/Nile Red); conditions: 6 days; for Emax: relative to TGF-β3 (10 ng/mL) positive control, read-out: Max. Activity as % TGF-β3 activity; for EC50: concentration required to induce 50% levels of chondrogenesis vs TGF-β3, read-out: Conc (nM) of 50% TGF-β3 activity
Source text: Representative compounds were screened using primary human mesenchymal stem cells (hMSCs) to determine their ability to induce chondrogenesis (process by which cartilage is developed).
Human Mesenchymal Stem Cell Culture: Primary human mesenchymal stem cells (hMSCs) were purchased from Lonza (Walkersville, Md.) and expanded in Mesenchymal Stem Cell Growth Media (Lonza). Cells between passage 3 and 6 were used for the experiments.
Number of nodules in each well was normalized to the average of 3 DMSO treated wells on the same plate using Excel (Microsoft Inc.). The normalized averages (fold change over DMSO) of 3 replicate wells for each compound concentration were calculated. Due to solubility limitations of some of the compounds, curve fitting was incomplete leading to inaccurate EC50 determinations.
Using TGF-β3 as a positive control, the concentration of representative compounds required to induce 50% levels of chondrogenesis is reported. In addition, the maximum activity of each compound and the respective dose that each compound reached maximum chondrogenesis activity is reported.

[2] = system: SW480 colon cancer cells; experiment: Cell viability assay (CellTiter-Blue) in SW480 colon cancer cells; conditions: Homo sapiens; for EC50: 96 h, SW480 cell viability, four days; for inhibition at 10 µM: SW480, read-out: percent inhibition at 10 μM
How it was run: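 Fluorescence from resazurin reduced to resorufin by metabolically active cells was the read-out, taken after ~3 h with CellTiter-Blue.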

[3] = system: primary human fibroblasts derived from IPF patients (LL29 cells) treated with TGF-β1; experiment: Inhibition of the fibrotic process: αSMA staining in TGF-β1 treated LL29 fibroblasts; conditions: Fibroblast; for EC50: 96 h, % αSMA positive LL29 cells, TGF-β1 20 ng/mL, 4 days; for inhibition at 10 µM: read-out: percent inhibition at 10 μM
How it was run: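 Read-out after 4-day incubation: αSMA staining with 1 μM SYTOX green nuclear counterstain (30 min, room temperature). Cells were LL29 primary fibroblasts from IPF patients, in 1% FBS F12, exposed to TGF-β1 with test compound, referenced to TGF-β1/DMSO control wells.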

[4] = system: Wnt activity (Sp5-Luc reporter, SW480 colon carcinoma cells); experiment: Screening assay for Wnt activity: Sp5-Luc reporter gene assay in SW480 colon carcinoma cells; conditions: Homo sapiens; for EC50: Sp5-Luc reporter, SW480 cells, overnight incubation; for inhibition at 10 µM: SW480, read-out: percent inhibition at 10 μM
How it was run: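 SW480 colon carcinoma cells stably carrying Sp5 promoter (eight TCF/LEF sites)-driven firefly luciferase, plated at 4,000 cells/well in 1% FBS medium and incubated overnight at 37° C. Luminescence normalised to DMSO-only cells; EC50 from four-parameter variable-slope nonlinear regression.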

[5] = system: IL-6 (THP-1 cells); experiment: IL-6 inhibition in LPS-stimulated THP-1 monocytes (HTRF); conditions: Homo sapiens; for EC50: IL-6, THP-1 cells, LPS 500 ng/mL, 22 hours; for inhibition at 10 µM: THP-1, read-out: percent inhibition at 10 μM
How it was run: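 THP-1 cells kept 24 h in 1% FBS medium, exposed to compound 2 h at 37 °C, then stimulated with 500 ng/mL LPS for 22 h. Secreted IL-6 quantified by HTRF (665/620 nm ratio), duplicates. Values normalized to DMSO; EC50 by four-parameter variable-slope regression.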

`CN(C)Cc1cncc(-c2cc3c(-c4cc5c(N6CCN(C)CC6)nccc5[nH]4)n[nH]c3cn2)c1` [Compound 237, N,N-Dimethyl-1-(5-(3-(4-(4-methylpiperazin-1-yl)-1H-pyrrolo[3,2-c]pyridin-2-yl)-1H-pyrazolo[3,4-c]pyridin-5-yl)pyridin-3-yl)methanamine] was tested, and the Emax [1] was 14%, the EC50 [2] was > 10000 nM and the inhibition at 10 µM [2] was 43.7%. The EC50 [3] was > 10000 nM, the inhibition at 10 µM [3] was 37% and the EC50 [4] was 3890 nM. The EC50 [5] was 4680 nM.
`O=C(Nc1cncc(-c2cc3c(-c4cc5c(-c6ccc(F)cc6)nccc5[nH]4)n[nH]c3cn2)c1)C1CC1` [Compound 48, N-(5-(3-(4-(4-Fluorophenyl)-1H-pyrrolo[3,2-c]pyridin-2-yl)-1H-pyrazolo[3,4-c]pyridin-5-yl)pyridin-3-yl)cyclopropanecarboxamide] was tested, and the EC50 [1] was 30 nM, the Emax [1] was 96% and the EC50 [2] was 666 nM. The EC50 [3] was 404 nM, the EC50 [4] was 844 nM and the EC50 [5] was 1050 nM.
`CN1CCN(c2nccc3[nH]c(-c4n[nH]c5cnc(-c6cncc(NC(=O)c7ccccc7)c6)cc45)cc23)CC1` [Compound 235, N-(5-(3-(4-(4-Methylpiperazin-1-yl)-1H-pyrrolo[3,2-c]pyridin-2-yl)-1H-pyrazolo[3,4-c]pyridin-5-yl)pyridin-3-yl)benzamide] was tested, and the EC50 [1] was 10 nM, the Emax [1] was 67% and the EC50 [2] was > 10000 nM. For the same compound, the inhibition at 10 µM [2] was 21.5%, the EC50 [3] was 2460 nM and the EC50 [4] was 2800 nM. For the same compound, the EC50 [5] was 1340 nM.
`CC(C)(C)CC(=O)Nc1cncc(-c2cc3c(-c4cc5cnccc5[nH]4)n[nH]c3cn2)c1` [Compound 268, N-(5-(3-(1H-Pyrrolo[3,2-c]pyridin-2-yl)-1H-pyrazolo[3,4-c]pyridin-5-yl)pyridin-3-yl)-3,3-dimethylbutanamide] showed an EC50 [1] of 10 nM, an Emax [1] of 59% and an EC50 [2] of 5040 nM. For the same compound, the EC50 [3] was 4010 nM, the EC50 [4] was 1890 nM and the EC50 [5] was 3460 nM.
`Oc1cncc(-c2cc3c(-c4cc5c(-c6cccs6)nccc5[nH]4)n[nH]c3cn2)c1` [Compound 709, 5-(3-(4-(Thiophen-2-yl)-1H-pyrrolo[3,2-c]pyridin-2-yl)-1H-pyrazolo[3,4-c]pyridin-5-yl)pyridin-3-ol] gave an EC50 [1] of 10 nM, an Emax [1] of 83% and an EC50 [2] of 6350 nM. For the same compound, the EC50 [3] was 340 nM, the EC50 [4] was 1010 nM and the EC50 [5] was 3190 nM.
With `CCCCC(=O)Nc1cncc(-c2cc3c(-c4cc5c(-c6cc(F)cc(CNS(C)(=O)=O)c6)nccc5[nH]4)n[nH]c3cn2)c1` [Compound 495, N-(5-(3-(4-(3-Fluoro-5-(methylsulfonamidomethyl)phenyl)-1H-pyrrolo[3,2-c]pyridin-2-yl)-1H-pyrazolo[3,4-c]pyridin-5-yl)pyridin-3-yl)pentanamide] the EC50 [1] was 10 nM, the Emax [1] was 111% and the EC50 [2] was > 10000 nM. The inhibition at 10 µM [2] was 0%, the EC50 [3] was > 10000 nM and the inhibition at 10 µM [3] was 3.3%. For the same compound, the inhibition at 10 µM [4] was 29.6%, the EC50 [4] was > 10000 nM and the inhibition at 10 µM [5] was 34.8%. The EC50 [5] was > 10000 nM.
`CS(=O)(=O)NCc1cc(F)cc(-c2nccc3[nH]c(-c4n[nH]c5cnc(-c6cncc(OCc7ccccc7)c6)cc45)cc23)c1` [Compound 774, N-(3-(2-(5-(5-(Benzyloxy)pyridin-3-yl)-1H-pyrazolo[3,4-c]pyridin-3-yl)-1H-pyrrolo[3,2-c]pyridin-4-yl)-5-fluorobenzyl)methanesulfonamide] was tested, and the EC50 [1] was 300 nM, the Emax [1] was 115% and the EC50 [2] was 2450 nM. For the same compound, the EC50 [3] was 363 nM, the EC50 [4] was 1510 nM and the EC50 [5] was 1100 nM.
`CC(C)CC(=O)Nc1cncc(-c2cc3c(-c4cc5c(-c6ccc(F)cc6)nccc5[nH]4)n[nH]c3cn2)c1` [Compound 30, N-(5-(3-(4-(4-Fluorophenyl)-1H-pyrrolo[3,2-c]pyridin-2-yl)-1H-pyrazolo[3,4-c]pyridin-5-yl)pyridin-3-yl)-3-methylbutanamide] gave an EC50 [1] of 900 nM, an Emax [1] of 71% and an EC50 [2] of 298 nM. For the same compound, the EC50 [3] was 356 nM, the EC50 [4] was 289 nM and the EC50 [5] was 669 nM.
With `CCNCc1cncc(-c2cc3c(-c4cc5c(N6CCCCC6)nccc5[nH]4)n[nH]c3cn2)c1` [Compound 174, N-((5-(3-(4-(Piperidin-1-yl)-1H-pyrrolo[3,2-c]pyridin-2-yl)-1H-pyrazolo[3,4-c]pyridin-5-yl)pyridin-3-yl)methyl)ethanamine] the EC50 [1] was 10 nM, the Emax [1] was 183% and the EC50 [2] was 2370 nM. The EC50 [3] was 1200 nM, the EC50 [4] was 2770 nM and the EC50 [5] was 1020 nM.
For `CC(C)C(=O)Nc1cncc(-c2cc3c(-c4cc5c(-c6cc(F)cc(CNS(C)(=O)=O)c6)nccc5[nH]4)n[nH]c3cn2)c1` [Compound 485, N-(5-(3-(4-(3-Fluoro-5-(methylsulfonamidomethyl)phenyl)-1H-pyrrolo[3,2-c]pyridin-2-yl)-1H-pyrazolo[3,4-c]pyridin-5-yl)pyridin-3-yl)isobutyramide], the EC50 [1] was 30 nM, the Emax [1] was 80% and the EC50 [2] was > 10000 nM. For the same compound, the inhibition at 10 µM [2] was 10.5%, the EC50 [3] was > 10000 nM and the inhibition at 10 µM [3] was 0%. The inhibition at 10 µM [4] was 43.9%, the EC50 [4] was > 10000 nM and the inhibition at 10 µM [5] was 47.8%. The EC50 [5] was > 10000 nM.
With `c1ccc(CNCc2cncc(-c3cc4c(-c5cc6c(-c7ccncc7)nccc6[nH]5)n[nH]c4cn3)c2)cc1` [Compound 136, N-Benzyl-1-(5-(3-(4-(pyridin-4-yl)-1H-pyrrolo[3,2-c]pyridin-2-yl)-1H-pyrazolo[3,4-c]pyridin-5-yl)pyridin-3-yl)methanamine] the EC50 [1] was 900 nM, the Emax [1] was 67% and the EC50 [2] was > 10000 nM. The inhibition at 10 µM [2] was 23%, the EC50 [3] was 560 nM and the inhibition at 10 µM [4] was 50.4%. The EC50 [4] was > 10000 nM, the inhibition at 10 µM [5] was 0% and the EC50 [5] was > 10000 nM.
For `CC(C)(C)CC(=O)Nc1cncc(-c2cc3c(-c4cc5c(-c6ccccc6F)nccc5[nH]4)n[nH]c3cn2)c1` [Compound 72, N-(5-(3-(4-(2-fluorophenyl)-1H-pyrrolo[3,2-c]pyridin-2-yl)-1H-pyrazolo[3,4-c]pyridin-5-yl)pyridin-3-yl)-3,3-dimethylbutanamide], the EC50 [1] was 30 nM, the Emax [1] was 54% and the EC50 [2] was 1280 nM. It also gave an EC50 [3] of 932 nM, an EC50 [4] of 1030 nM and an EC50 [5] of 1090 nM.
`CCC(=O)Nc1cncc(-c2cc3c(-c4cc5c(-c6cccc(F)c6)nccc5[nH]4)n[nH]c3cn2)c1` [Compound 1, N-(5-(3-(4-(3-Fluorophenyl)-1H-pyrrolo[3,2-c]pyridin-2-yl)-1H-pyrazolo[3,4-c]pyridin-5-yl)pyridin-3-yl)propionamide] gave an EC50 [1] of 30 nM, an Emax [1] of 51% and an EC50 [2] of 931 nM. The EC50 [3] was 235 nM, the EC50 [4] was 305 nM and the EC50 [5] was 733 nM.
`c1csc(-c2nccc3[nH]c(-c4n[nH]c5cnc(-c6cncc(CN7CCCCC7)c6)cc45)cc23)c1` [Compound 351, 5-(5-(Piperidin-1-ylmethyl)pyridin-3-yl)-3-(4-(thiophen-2-yl)-1H-pyrrolo[3,2-c]pyridin-2-yl)-1H-pyrazolo[3,4-c]pyridine] gave an EC50 [1] of 10 nM, an Emax [1] of 59% and an EC50 [2] of 2400 nM. For the same compound, the EC50 [3] was 1990 nM, the EC50 [4] was 3650 nM and the inhibition at 10 µM [5] was 0%. For the same compound, the EC50 [5] was > 10000 nM.
For `CS(=O)(=O)NCc1cc(F)cc(-c2nccc3[nH]c(-c4n[nH]c5cnc(-c6cncc(NC(=O)C7CCC7)c6)cc45)cc23)c1` [Compound 497, N-(5-(3-(4-(3-Fluoro-5-(methylsulfonamidomethyl)phenyl)-1H-pyrrolo[3,2-c]pyridin-2-yl)-1H-pyrazolo[3,4-c]pyridin-5-yl)pyridin-3-yl)cyclobutanecarboxamide], the Emax [1] was 16%, the EC50 [2] was > 10000 nM and the inhibition at 10 µM [2] was 12.8%. The EC50 [3] was > 10000 nM, the inhibition at 10 µM [3] was 0% and the inhibition at 10 µM [4] was 27.2%. The EC50 [4] was > 10000 nM, the inhibition at 10 µM [5] was 38.8% and the EC50 [5] was > 10000 nM.
For `CN(C)Cc1cncc(-c2cc3c(-c4cc5c(-c6cccc(F)c6)nccc5[nH]4)n[nH]c3cn2)c1` [Compound 13, 1-(5-(3-(4-(3-Fluorophenyl)-1H-pyrrolo[3,2-c]pyridin-2-yl)-1H-pyrazolo[3,4-c]pyridin-5-yl)pyridin-3-yl)-N,N-dimethylmethanamine], the EC50 [1] was 30 nM, the Emax [1] was 60% and the EC50 [2] was 1730 nM. For the same compound, the EC50 [3] was 9 nM, the EC50 [4] was 1850 nM and the EC50 [5] was 425 nM.
